According to patent publication US20240115705A1, “Regulation of Butyrophilin subfamily 3 member A1 (BTN3A1, CD277)” (The J. Gladstone Institutes, a testamentary trust …, priority 2021, published 2024):

Tested on: Daudi-Cas9 cells
Test: Cancer-T cell co-culture genome-wide CRISPR knockout screen (Vγ9Vδ2 T cell killing)
Type: cell-based, human
Conditions: for score: MAGeCK sgRNA test, co-culture screen; for LFC: log-fold change of sgRNA, surviving cells after co-culture vs baseline; for LFC / treat mean: MAGeCK; for treat mean: sgRNA abundance in surviving Daudi-Cas9 KO cells after 24 hours Vγ9Vδ2 T cell co-culture with zoledronate; for high_in_treatment: sgRNA enriched (TRUE) or depleted (FALSE) after T cell co-culture

SH3GL1_ACTTCTGTCACCGCCTTGC: library sgRNA targeting SH3GL1 (listed as DNA, chemistry not fully specified)
score: 6.045
LFC: −7.484
treat mean: 11.374
high_in_treatment: FALSE

SHMT2_CAACCTCACGACCGGATCA: library sgRNA targeting SHMT2 (listed as DNA, chemistry not fully specified)
score: 5.9975
LFC: −5.253
treat mean: 63.415
high_in_treatment: FALSE

SHMT2_TGCTCGACTTTTCCGGCCA: library sgRNA targeting SHMT2 (listed as DNA, chemistry not fully specified)
score: 6.1486
LFC: −3.7292
treat mean: 220.66
high_in_treatment: FALSE

SLC2A4_CAGGTCTGAAGCGCCTGAC: library sgRNA targeting SLC2A4 (listed as DNA, chemistry not fully specified)
score: 6.0044
LFC: 4.6166
treat mean: 47.773
high_in_treatment: TRUE

SLC22A3_GCCTTCCTCTTCGTCGGCG: library sgRNA targeting SLC22A3 (listed as DNA, chemistry not fully specified)
score: 6.0158
LFC: 1.0179
treat mean: 4633
high_in_treatment: TRUE

SNF8_ACCATTGGCGTGGATCCGC: library sgRNA targeting SNF8 (as printed in the source, key not given here)
score: 6.4788
LFC: −6.2459
treat mean: 35.261
high_in_treatment: FALSE

SPI1_ATACTCGTGCGTTTGGCGT: library sgRNA targeting SPI1 (as printed in the source, key not given here)
score: 8.1546
LFC: 1.1261
treat mean: 6915.7
high_in_treatment: TRUE

SPI1_CACGTCCTCGATACCCCCA: library sgRNA targeting SPI1 (as printed in the source, key not given here)
score: 9.6891
LFC: 1.4776
treat mean: 5441.8
high_in_treatment: TRUE

SPIB_CCTCGTGGCTGGCCCCGAG: library sgRNA targeting SPIB (as printed in the source, key not given here)
score: 7.9175
LFC: 1.2165
treat mean: 5523.4
high_in_treatment: TRUE

SPIB_CGGGTCGAAGGCTTCATAG: library sgRNA targeting SPIB (as printed in the source, key not given here)
score: 6.9394
LFC: 1.7479
treat mean: 1900.6
high_in_treatment: TRUE

SPIB_CTGGGGCTACTGACGCGCG: library sgRNA targeting SPIB (as printed in the source, key not given here)
score: 12.692
LFC: 1.6241
treat mean: 7610.7
high_in_treatment: TRUE

SPIB_GAGGTCTCGGACAGCGAGT: library sgRNA targeting SPIB (as printed in the source, key not given here)
score: 7.1579
LFC: 1.2994
treat mean: 3907.1
high_in_treatment: TRUE

SPIB_GCTAGCGAAGTTCTCCGTG: library sgRNA targeting SPIB (as printed in the source, key not given here)
score: 8.8597
LFC: 1.4916
treat mean: 4447.4
high_in_treatment: TRUE

SPIB_GGGGGGTTCGTAGCAGAGC: library sgRNA targeting SPIB (as printed in the source, key not given here)
score: 6.2733
LFC: 1.2452
treat mean: 3280.6
high_in_treatment: TRUE

SPIB_GGGTACGGGGCATATGCCG: library sgRNA targeting SPIB (as printed in the source, key not given here)
score: 10.693
LFC: 1.7824
treat mean: 4360
high_in_treatment: TRUE

SUGT1_TTTGACTGATGAGTCCACT: library sgRNA targeting SUGT1 (listed as DNA, chemistry not fully specified)
score: 7.7611
LFC: 1.5136
treat mean: 3294.2
high_in_treatment: TRUE

TRMT61A_CACGTCACCTTGGAGCCGA: library sgRNA targeting TRMT61A (listed as DNA, chemistry not fully specified)
score: 6.3388
LFC: −3.6911
treat mean: 242.28
high_in_treatment: FALSE

TSC2_AGCATCTCATACACACGCG: library sgRNA targeting TSC2 (listed as DNA, chemistry not fully specified)
score: 6.0284
LFC: −2.8218
treat mean: 463.96
high_in_treatment: FALSE

TTC7A_CAGTACGTCATGCTCTCGG: library sgRNA targeting TTC7A (listed as DNA, chemistry not fully specified)
score: 6.0307
LFC: −5.2629
treat mean: 63.697
high_in_treatment: FALSE

UGGT2_TTCGCAATCTTGGGATCAA: library sgRNA targeting UGGT2 (listed as DNA, chemistry not fully specified)
score: 8.3503
LFC: 1.6772
treat mean: 3035.8
high_in_treatment: TRUE

WDR59_TATCCGCACATCGCCGTCA: library sgRNA targeting WDR59 (as printed in the source, key not given here)
score: 7.8204
LFC: −3.8469
treat mean: 327.58
high_in_treatment: FALSE

WDR61_ATTCCATCTATGGCTCCAC: library sgRNA targeting WDR61 (as printed in the source, key not given here)
score: 6.193
LFC: −9.1046
treat mean: 2.9058
high_in_treatment: FALSE

XPNPEP1_GGACTTGTAGGGATGCACC: library sgRNA targeting XPNPEP1 (as printed in the source, key not given here)
score: 6.7154
LFC: 1.4173
treat mean: 2841.3
high_in_treatment: TRUE

ZC3H12A_CCGTGACCTCCAAGGCGAG: library sgRNA targeting ZC3H12A (listed as DNA, chemistry not fully specified)
score: 6.507
LFC: 1.2168
treat mean: 3712.6
high_in_treatment: TRUE
